# Reference: ChEMBL document CHEMBL5678818, “Discovery of potent SOS1 inhibitors that block RAS activation via disruption of the RAS-SOS1 interaction” (Proc Natl Acad Sci U S A, 2019)
# Legend:
# [1] = biological target: T1, Hormonally up-regulated neu tumor-associated kinase (Homo sapiens) (UniProt P57058); experiment: Inhibition of HUNK (unknown origin) assessed as residual activity at 100 nM by KINOMEscan analysis relative to control
# T1 sequence (whole entry): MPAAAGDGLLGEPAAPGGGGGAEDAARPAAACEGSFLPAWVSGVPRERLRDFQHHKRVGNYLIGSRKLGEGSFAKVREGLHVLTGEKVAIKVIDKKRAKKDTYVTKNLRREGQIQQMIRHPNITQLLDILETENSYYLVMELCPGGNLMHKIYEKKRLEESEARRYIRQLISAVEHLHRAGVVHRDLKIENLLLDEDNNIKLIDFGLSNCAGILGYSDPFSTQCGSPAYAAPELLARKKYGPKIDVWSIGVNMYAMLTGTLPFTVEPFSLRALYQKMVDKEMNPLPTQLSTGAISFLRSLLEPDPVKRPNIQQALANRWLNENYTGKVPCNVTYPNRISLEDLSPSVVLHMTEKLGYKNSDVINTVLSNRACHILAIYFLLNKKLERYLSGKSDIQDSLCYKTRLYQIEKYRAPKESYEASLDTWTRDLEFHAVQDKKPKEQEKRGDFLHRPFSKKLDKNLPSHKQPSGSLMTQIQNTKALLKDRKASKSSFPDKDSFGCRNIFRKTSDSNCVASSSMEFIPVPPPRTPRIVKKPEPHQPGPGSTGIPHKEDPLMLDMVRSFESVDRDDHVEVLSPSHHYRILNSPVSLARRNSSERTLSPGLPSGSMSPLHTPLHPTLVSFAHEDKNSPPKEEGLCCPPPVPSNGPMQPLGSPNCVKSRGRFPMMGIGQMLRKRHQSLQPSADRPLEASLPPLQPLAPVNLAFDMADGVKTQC
# [2] = biological target: Serine/threonine-protein kinase Nek4 (Homo sapiens) (UniProt P51957); experiment: Inhibition of NEK4 (unknown origin) assessed as residual activity at 100 nM by KINOMEscan analysis relative to control
# Serine/threonine-protein kinase Nek4 (Homo sapiens), sequence (P51957 whole entry, looked up): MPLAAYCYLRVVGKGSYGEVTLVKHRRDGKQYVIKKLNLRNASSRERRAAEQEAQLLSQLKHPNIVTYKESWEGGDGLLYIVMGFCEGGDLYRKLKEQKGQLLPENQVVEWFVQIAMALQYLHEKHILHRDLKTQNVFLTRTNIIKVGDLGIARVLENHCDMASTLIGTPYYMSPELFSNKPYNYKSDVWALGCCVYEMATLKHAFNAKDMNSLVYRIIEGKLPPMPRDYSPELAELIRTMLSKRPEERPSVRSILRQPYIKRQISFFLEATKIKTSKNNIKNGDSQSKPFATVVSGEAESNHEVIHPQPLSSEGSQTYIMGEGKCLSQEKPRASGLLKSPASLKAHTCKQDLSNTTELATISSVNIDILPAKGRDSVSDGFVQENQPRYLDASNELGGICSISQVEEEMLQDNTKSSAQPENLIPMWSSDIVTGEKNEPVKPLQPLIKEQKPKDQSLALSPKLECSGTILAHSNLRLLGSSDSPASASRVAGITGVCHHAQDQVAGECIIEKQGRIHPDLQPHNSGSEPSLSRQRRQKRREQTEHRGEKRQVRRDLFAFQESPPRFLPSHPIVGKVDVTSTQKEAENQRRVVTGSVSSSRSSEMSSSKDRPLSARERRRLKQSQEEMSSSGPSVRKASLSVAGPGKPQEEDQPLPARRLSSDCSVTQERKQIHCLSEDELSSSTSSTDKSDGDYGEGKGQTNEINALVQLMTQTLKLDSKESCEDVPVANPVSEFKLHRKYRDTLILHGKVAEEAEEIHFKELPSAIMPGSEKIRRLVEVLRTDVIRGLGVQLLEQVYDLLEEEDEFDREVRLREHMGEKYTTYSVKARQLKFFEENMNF
# [3] = biological target: Dual specificity mitogen-activated protein kinase kinase 2 (Homo sapiens) (UniProt P36507); experiment: Inhibition of MEK2 (unknown origin) assessed as residual activity at 100 nM by KINOMEscan analysis relative to control
# Dual specificity mitogen-activated protein kinase kinase 2 (Homo sapiens), sequence (P36507 whole entry): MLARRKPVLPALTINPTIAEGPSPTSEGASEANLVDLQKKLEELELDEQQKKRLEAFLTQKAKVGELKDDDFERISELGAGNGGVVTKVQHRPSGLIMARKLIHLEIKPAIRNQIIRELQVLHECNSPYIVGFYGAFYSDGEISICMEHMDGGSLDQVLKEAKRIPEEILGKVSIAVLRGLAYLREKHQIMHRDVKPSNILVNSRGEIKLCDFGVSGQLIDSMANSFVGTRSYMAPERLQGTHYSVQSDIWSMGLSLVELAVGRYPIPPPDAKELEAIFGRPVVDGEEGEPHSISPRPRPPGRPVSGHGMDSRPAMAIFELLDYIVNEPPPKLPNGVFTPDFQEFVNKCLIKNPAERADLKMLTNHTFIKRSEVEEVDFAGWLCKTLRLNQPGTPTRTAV
# [4] = biological target: T2, Dual specificity tyrosine-phosphorylation-regulated kinase 2 (Homo sapiens) (UniProt Q92630); experiment: Inhibition of DYRK2 (unknown origin) assessed as residual activity at 100 nM by KINOMEscan analysis relative to control
# T2 sequence (whole entry): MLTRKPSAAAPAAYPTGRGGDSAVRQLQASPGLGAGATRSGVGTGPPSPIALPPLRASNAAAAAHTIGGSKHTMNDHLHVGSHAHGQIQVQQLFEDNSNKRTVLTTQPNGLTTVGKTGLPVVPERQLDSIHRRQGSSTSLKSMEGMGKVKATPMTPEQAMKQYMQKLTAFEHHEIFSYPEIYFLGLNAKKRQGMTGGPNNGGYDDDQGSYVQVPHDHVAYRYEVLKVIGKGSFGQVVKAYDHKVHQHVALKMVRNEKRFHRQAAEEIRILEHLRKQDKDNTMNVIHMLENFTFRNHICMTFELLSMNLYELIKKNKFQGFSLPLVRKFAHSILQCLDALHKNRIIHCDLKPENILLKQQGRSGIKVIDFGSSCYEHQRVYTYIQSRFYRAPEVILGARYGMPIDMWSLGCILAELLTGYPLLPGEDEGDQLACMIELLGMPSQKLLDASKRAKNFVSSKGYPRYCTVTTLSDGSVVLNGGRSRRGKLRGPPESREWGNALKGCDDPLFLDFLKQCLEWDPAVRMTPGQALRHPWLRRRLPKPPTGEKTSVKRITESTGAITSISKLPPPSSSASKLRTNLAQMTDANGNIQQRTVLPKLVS
# [5] = biological target: T3, Serine/threonine-protein kinase DCLK1 (Homo sapiens) (UniProt O15075); experiment: Inhibition of DCAMKL1 (unknown origin) assessed as residual activity at 100 nM by KINOMEscan analysis relative to control
# T3 sequence (whole entry): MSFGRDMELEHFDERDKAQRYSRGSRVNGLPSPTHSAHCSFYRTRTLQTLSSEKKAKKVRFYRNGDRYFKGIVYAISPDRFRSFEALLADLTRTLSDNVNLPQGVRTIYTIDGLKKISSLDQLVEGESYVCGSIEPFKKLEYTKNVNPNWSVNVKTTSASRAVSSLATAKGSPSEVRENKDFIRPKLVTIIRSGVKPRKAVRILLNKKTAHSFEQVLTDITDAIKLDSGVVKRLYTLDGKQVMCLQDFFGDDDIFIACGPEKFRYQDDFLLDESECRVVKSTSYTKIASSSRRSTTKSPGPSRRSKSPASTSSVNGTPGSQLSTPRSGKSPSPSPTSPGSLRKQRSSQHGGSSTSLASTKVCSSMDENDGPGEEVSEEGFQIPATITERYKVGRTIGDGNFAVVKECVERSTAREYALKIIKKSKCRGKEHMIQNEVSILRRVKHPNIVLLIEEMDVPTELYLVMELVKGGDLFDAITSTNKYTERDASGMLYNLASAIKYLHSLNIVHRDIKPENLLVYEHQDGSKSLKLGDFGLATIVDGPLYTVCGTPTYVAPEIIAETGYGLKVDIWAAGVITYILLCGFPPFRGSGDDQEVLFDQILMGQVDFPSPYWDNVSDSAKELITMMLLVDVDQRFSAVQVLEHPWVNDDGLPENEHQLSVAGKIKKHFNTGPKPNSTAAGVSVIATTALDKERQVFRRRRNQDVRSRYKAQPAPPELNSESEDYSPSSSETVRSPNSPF
# [6] = tested on: Mast/stem cell growth factor receptor Kit (Homo sapiens), P10721 [D816V]; experiment: Inhibition of KIT D816V mutant (unknown origin) assessed as residual activity at 100 nM by KINOMEscan analysis relative to control
# Mast/stem cell growth factor receptor Kit (Homo sapiens), P10721 [D816V], sequence (P10721 whole entry D816V): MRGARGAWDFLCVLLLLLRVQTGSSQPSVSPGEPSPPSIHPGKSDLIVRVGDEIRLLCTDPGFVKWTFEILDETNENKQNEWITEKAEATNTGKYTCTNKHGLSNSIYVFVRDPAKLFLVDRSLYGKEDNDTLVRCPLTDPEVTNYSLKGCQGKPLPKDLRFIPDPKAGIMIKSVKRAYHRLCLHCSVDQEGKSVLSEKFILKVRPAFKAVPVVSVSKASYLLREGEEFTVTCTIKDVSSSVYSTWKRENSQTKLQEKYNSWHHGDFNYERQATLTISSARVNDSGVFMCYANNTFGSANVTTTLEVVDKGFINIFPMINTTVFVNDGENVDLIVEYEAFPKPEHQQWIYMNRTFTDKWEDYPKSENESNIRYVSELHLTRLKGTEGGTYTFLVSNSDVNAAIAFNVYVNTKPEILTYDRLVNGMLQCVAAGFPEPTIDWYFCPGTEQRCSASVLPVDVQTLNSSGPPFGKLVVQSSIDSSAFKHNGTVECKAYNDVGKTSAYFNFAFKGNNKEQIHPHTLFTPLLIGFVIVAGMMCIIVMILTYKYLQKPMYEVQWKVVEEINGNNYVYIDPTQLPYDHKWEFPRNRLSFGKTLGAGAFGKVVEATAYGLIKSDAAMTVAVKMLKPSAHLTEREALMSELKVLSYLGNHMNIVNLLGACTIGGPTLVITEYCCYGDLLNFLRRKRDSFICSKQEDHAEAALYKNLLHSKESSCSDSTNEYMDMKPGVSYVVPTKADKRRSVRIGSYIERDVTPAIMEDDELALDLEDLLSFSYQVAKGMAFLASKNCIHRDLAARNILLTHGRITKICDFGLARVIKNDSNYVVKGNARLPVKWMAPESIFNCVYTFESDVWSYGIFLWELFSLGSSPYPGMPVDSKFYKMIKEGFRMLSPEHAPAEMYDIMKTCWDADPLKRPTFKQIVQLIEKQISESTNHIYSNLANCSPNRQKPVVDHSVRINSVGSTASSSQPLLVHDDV
smiles,measurement,setting,value
COc1cc2ncnc(N[C@H](C)c3cccc4ccccc34)c2cc1OC,Activity,[1],91%
same,Activity,[2],72%
same,Activity,[3],90%
same,Activity,[4],80%
same,Activity,[5],86%
same,Activity,[6],73%
